Data as given in ChEMBL document CHEMBL1201862, “PubChem BioAssay data set” (2004).
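Method: 48-hour compound exposure of cells in 96-well plates, five concentrations, linear interpolation of endpoints. GI50: concentration for 50% inhibition of growth.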 Calls of active or inactive are those of the source. Rule as the data show it: active = GI50 up to about 1.1 µM and inactive = higher.

Experiments:
Assay in all cases: inhibition of tumour cell growth, NCI panel, 48 h
RXF 393 = test system: RXF 393
MOLT-4 = test system: MOLT-4
NCI-H460 = test system: NCI-H460
NCI-H226 = test system: NCI-H226
KM12 = test system: KM12
HCT-15 = test system: HCT-15
SK-MEL-5 = test system: SK-MEL-5
ACHN = test system: ACHN
SK-MEL-28 = test system: SK-MEL-28
UO-31 = test system: UO-31
HOP-62 = test system: HOP-62
A498 = test system: A498
COLO 205 = test system: COLO 205
SK-OV-3 = test system: SK-OV-3
SF-268 = test system: SF-268
786-0 = test system: 786-0
A549 = test system: A549
Malme-3M = test system: Malme-3M

SMILES	GI50 (RXF 393)	GI50 (MOLT-4)	GI50 (NCI-H460)	GI50 (NCI-H226)	GI50 (KM12)	GI50 (HCT-15) [µM]	GI50 (SK-MEL-5)	GI50 (ACHN)	GI50 (SK-MEL-28)	GI50 (UO-31)	GI50 (HOP-62)	GI50 (A498)	GI50 (COLO 205)	GI50 (SK-OV-3)	GI50 (SF-268)	GI50 (786-0)	GI50 (A549)	GI50 (Malme-3M)
CC(=O)Nc1ccc(-c2nc3ccccc3s2)cc1C	44.7 µM (inactive)	24.9 µM (inactive)	78.2 µM (inactive)	26.9 µM (inactive)	51.2 µM (inactive)	> 100	58.9 µM (inactive)	44.4 µM (inactive)	99.1 µM (inactive)	17.9 µM (inactive)	40.6 µM (inactive)	2.9 µM (inactive)	45 µM (inactive)	32.6 µM (inactive)	64.4 µM (inactive)	52.6 µM (inactive)		
CC1=NN(c2nc(N)nc(COc3ccc(N)cc3)n2)C(C)(C)C1	> 100 µM (inactive)	> 100 µM (inactive)	> 100 µM (inactive)	> 100 µM (inactive)	> 100 µM (inactive)	> 100	> 100 µM (inactive)	> 100 µM (inactive)	> 100 µM (inactive)	> 100 µM (inactive)	> 100 µM (inactive)	> 100 µM (inactive)	> 100 µM (inactive)	> 100 µM (inactive)	> 100 µM (inactive)	> 100 µM (inactive)		
C/N=C(\N)N/N=C(\C)c1ccc2oc3ccc(/C(C)=N/N/C(N)=N/C)cc3c2c1		0.805 µM (active)	1.98 µM (inactive)	2.08 µM (inactive)	3.16 µM (inactive)	> 23	2.62 µM (inactive)	5.45 µM (inactive)	3.93 µM (inactive)	6.31 µM (inactive)	1.54 µM (inactive)		3.27 µM (inactive)	3.16 µM (inactive)	2.09 µM (inactive)	2.86 µM (inactive)	2.86 µM (inactive)	
CC1=C(C(=O)OCCc2ccc([N+](=O)[O-])cc2)C(c2ccccc2C(F)(F)F)C(C(=O)OC(C)C)=C(C)N1 (stereo not drawn)	1.87 µM (inactive)	2.08 µM (inactive)	2.47 µM (inactive)	3.15 µM (inactive)	2.88 µM (inactive)	3.78	1.64 µM (inactive)	3.06 µM (inactive)	4.89 µM (inactive)	4.19 µM (inactive)	3.51 µM (inactive)		2.97 µM (inactive)	3.97 µM (inactive)	3.53 µM (inactive)	4.16 µM (inactive)	2.81 µM (inactive)	3.49 µM (inactive)
Cc1nc(Cc2n[nH]c(C)n2)n[nH]1	> 100 µM (inactive)	> 100 µM (inactive)			> 100 µM (inactive)	> 100	> 100 µM (inactive)	> 100 µM (inactive)		> 100 µM (inactive)	> 100 µM (inactive)		> 100 µM (inactive)	> 100 µM (inactive)	> 100 µM (inactive)	> 100 µM (inactive)	> 100 µM (inactive)	
Cc1cccc(/N=N/c2c(C)nn(C(=O)CC(=O)Nc3ccc(Cl)cc3)c2C)c1	48.1 µM (inactive)	36.6 µM (inactive)	85.3 µM (inactive)	20 µM (inactive)	> 100 µM (inactive)	47.8	> 100 µM (inactive)	60.5 µM (inactive)	> 100 µM (inactive)	> 100 µM (inactive)	37.1 µM (inactive)	43.8 µM (inactive)	> 100 µM (inactive)	65.6 µM (inactive)	55.2 µM (inactive)	82 µM (inactive)	> 100 µM (inactive)	
CC(=O)c1c2c(cc3c1CC1(Cc4cc5c(cc4C1)CCC5)C3)CCC2	> 100 µM (inactive)	> 100 µM (inactive)	> 100 µM (inactive)			> 100	> 100 µM (inactive)	> 100 µM (inactive)	> 100 µM (inactive)	> 100 µM (inactive)	> 100 µM (inactive)	> 100 µM (inactive)		> 100 µM (inactive)	> 100 µM (inactive)	> 100 µM (inactive)	> 100 µM (inactive)	> 100 µM (inactive)
CN1C(=O)C(c2c[nH]c3ccccc23)N(C)C(=O)C1c1c[nH]c2ccccc12 (stereo not drawn)	46.9 µM (inactive)	> 100 µM (inactive)	> 100 µM (inactive)		> 100 µM (inactive)	> 100	> 100 µM (inactive)	72.8 µM (inactive)	> 100 µM (inactive)	> 100 µM (inactive)	63.4 µM (inactive)		> 100 µM (inactive)	> 100 µM (inactive)	86.3 µM (inactive)	53.2 µM (inactive)	> 100 µM (inactive)	> 100 µM (inactive)
N#CCCN(CCC#N)c1ccc(C(/N=N/c2ccc(Cl)cc2)=N\c2ccccc2)cc1	15.4 µM (inactive)	22.7 µM (inactive)	7.78 µM (inactive)	16 µM (inactive)	11.4 µM (inactive)	5.93	1.24 µM (inactive)	13.4 µM (inactive)	15.3 µM (inactive)	8.91 µM (inactive)	13.2 µM (inactive)	17.6 µM (inactive)	3.2 µM (inactive)	13.2 µM (inactive)	13.2 µM (inactive)	14.9 µM (inactive)	14.1 µM (inactive)	
COc1ccc(CCN2C(=O)CC34C=CC(CC3C2=O)O4)cc1OC (stereo not drawn)		> 100 µM (inactive)			> 100 µM (inactive)	> 100	> 100 µM (inactive)	> 100 µM (inactive)	> 100 µM (inactive)	> 100 µM (inactive)	> 100 µM (inactive)	> 100 µM (inactive)	> 100 µM (inactive)	> 100 µM (inactive)		> 100 µM (inactive)	> 100 µM (inactive)	
Oc1c(Cl)c(Cl)c(O)c(CCNc2ccc3ncccc3c2)c1Cl	18.9 µM (inactive)	1.15 µM (inactive)	18.9 µM (inactive)		3.91 µM (inactive)	14.9	1.88 µM (inactive)	13.7 µM (inactive)	24.5 µM (inactive)	12.2 µM (inactive)	12.5 µM (inactive)		6.55 µM (inactive)	11.8 µM (inactive)	5.13 µM (inactive)	16.5 µM (inactive)	17.2 µM (inactive)	18.6 µM (inactive)
Cc1c(C)c2c(c(N)c1C#N)C(=O)N(CCN1CCNCC1)C2=O	22.4 µM (inactive)	30.5 µM (inactive)	29.9 µM (inactive)	29.1 µM (inactive)	45.4 µM (inactive)	35.6	> 10 µM (inactive)	25.6 µM (inactive)	38.3 µM (inactive)	28.6 µM (inactive)		22.2 µM (inactive)	22.5 µM (inactive)		34.1 µM (inactive)	25.4 µM (inactive)	29.6 µM (inactive)	22.6 µM (inactive)
Clc1ccc(C(OCn2ccnc2)c2nc3ccccc3[nH]2)c(Cl)c1 (stereo not drawn)		29.6 µM (inactive)	24.5 µM (inactive)		> 100 µM (inactive)	27.7	16.2 µM (inactive)	26.4 µM (inactive)	48.3 µM (inactive)	23.7 µM (inactive)	92.9 µM (inactive)	38.2 µM (inactive)	34 µM (inactive)		61.8 µM (inactive)	39 µM (inactive)	43.4 µM (inactive)	88.9 µM (inactive)
CSc1cc(Cl)c(C(=O)Nc2ccccc2)cc1S(=O)(=O)n1ccnc1O	> 100 µM (inactive)	> 100 µM (inactive)	> 100 µM (inactive)		> 100 µM (inactive)	> 100	> 100 µM (inactive)	> 100 µM (inactive)	> 100 µM (inactive)	> 100 µM (inactive)	> 100 µM (inactive)	> 100 µM (inactive)	> 100 µM (inactive)	> 100 µM (inactive)	> 100 µM (inactive)	> 100 µM (inactive)	> 100 µM (inactive)	> 100 µM (inactive)
CC1=NN(c2cccc(Cl)c2)C2(SCC(=O)N2c2nc3ccccc3s2)/C1=C\c1ccccc1 (stereo not drawn)	21.6 µM (inactive)	21.2 µM (inactive)	15.3 µM (inactive)	19 µM (inactive)	16.1 µM (inactive)	16	12.6 µM (inactive)	19.6 µM (inactive)	27.5 µM (inactive)	20.1 µM (inactive)	22.3 µM (inactive)	23.2 µM (inactive)		19.9 µM (inactive)	21.4 µM (inactive)	16.6 µM (inactive)		
CC(=O)OCC1OC(OCC2OC(N3C(=S)N[C@H]([C@@H](O)[C@H](O)[C@H](O)CO)[C@H]3O)C(OC(C)=O)C(OC(C)=O)C2OC(C)=O)C(OC(C)=O)C(OC(C)=O)C1OC(C)=O (stereo partly drawn)	> 100 µM (inactive)	> 100 µM (inactive)	> 100 µM (inactive)		> 100 µM (inactive)	> 100	> 100 µM (inactive)	> 100 µM (inactive)	> 100 µM (inactive)	> 100 µM (inactive)	> 100 µM (inactive)	> 100 µM (inactive)	> 100 µM (inactive)	> 100 µM (inactive)	> 100 µM (inactive)	> 100 µM (inactive)	> 100 µM (inactive)	> 100 µM (inactive)
CC[C@H](C)[C@H](NC(=O)[C@@]1(O)[C@H](O)[C@]2(CC)C=CCN3CC[C@@]4(c5cc(Br)c(OC)cc5N(C)[C@@H]14)[C@@H]32)C(=O)OC	45.5 µM (inactive)	22.8 µM (inactive)	24.3 µM (inactive)		27.2 µM (inactive)	25.7	24.4 µM (inactive)	24.8 µM (inactive)	13.2 µM (inactive)	44.4 µM (inactive)	32.2 µM (inactive)	25.3 µM (inactive)	14 µM (inactive)	38 µM (inactive)	27.7 µM (inactive)	63.5 µM (inactive)	20.5 µM (inactive)	21.9 µM (inactive)
